The values that follow come from patent publication US10568879B2 (GALAPAGOS NV, priority 2015, dated 2020).

One data set concerns human neutrophils. The experiment in a line: Human neutrophil migration assay. The data set is classed as cell-based. The note with it: for IC50: Homo sapiens, Neutrophil, embelin at EC80 as chemotactic agent, 1 h at 37° C., read-out: Human neutrophil migration IC50. An outline of the steps:
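Neutrophils freshly isolated from human buffy coats by dextran sedimentation and hypotonic lysis were preincubated with compound for 30 min at room temperature. Chemotaxis then ran in a Transwell system for 1 h at 37° C, 5% CO2. Migrated cells in the lower well were quantified by ATPlite luminescence.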

Data set [1] has as its target T1, GPR84 (Homo sapiens, UniProt Q9NQS5).
T1 construct: expressed in transfected cells
The conditions noted are these: literature; cited from earlier work.

Data set [2] addresses T1, GPR84. The experiment in a line: GPR84 [35S]GTPγS binding assay. The data set is classed as biochemical. The note with it: 3,3′-diindolylmethane at EC80; membranes from stable cell line over expressing GPR84. In short, it runs like this: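 Antagonist-mode [35S]GTPγS binding on membranes from a GPR84-overexpressing stable line (GDP-preincubated), stimulated with 3,3′-diindolylmethane at EC80. Buffer 20 mM Tris pH 7.5, 5 mM MgCl2, 250 mM NaCl, saponin; 0.1 nM [35S]GTPγS, 90 min at room temperature, SPA bead read-out.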
On the technique in general: GTPγS is a poorly hydrolysed GTP analogue; its binding reports G protein activation.

Data set [3] can be described thus: Chemical stability in aqueous solutions with different pH. The data set is classed as physicochemical. The note with it: 2 μM; for % rem. (2 h) pH 1.2 / % rem. (24 h) pH 1.2: pH 1.2 hydrochloric acid buffer; for % rem. (2 h) pH 1.2 / % rem. (2 h) pH 5.0 / % rem. (2 h) pH 7.4 / % rem. (2 h) pH 9.0: 2 h incubation at 37° C.; for % rem. (24 h) pH 1.2 / % rem. (24 h) pH 5.0 / % rem. (24 h) pH 7.4 / % rem. (24 h) pH 9.0: 24 h incubation at 37° C.; for % rem. (2 h) pH 5.0 / % rem. (24 h) pH 5.0: pH 5.0 acetate buffer; for % rem. (2 h) pH 7.4 / % rem. (24 h) pH 7.4: pH 7.4 phosphate buffer; for % rem. (2 h) pH 9.0 / % rem. (24 h) pH 9.0: pH 9.0 Tris buffer. On the procedure: This in vitro model is aimed at assessing the stability of a test compound in aqueous solutions with different pH. The decrease in parent compound is assessed by measuring the percentage parent remaining after 2 and 24 h incubation at 37° C.
A 2 mM DMSO stock is made for each test compound starting from dry matter. Then a 80 μM working solution of compound in DMSO is made by diluting the 2 mM DMSO.
The 80 μM working solution is diluted to a final concentration of 2 μM-2.5% DMSO in buffer with the desired pH (pH 1.2: hydrochloric acid buffer, pH 5.0: acetate buffer, pH 7.4: phosphate buffer, pH 9.0: Tris buffer) in 96-well plates with glass inserts (Cat no. 548-0201/548-0202, VWR-Thermo Scientific). Two replicates are run for each buffer solution and each time point.
One set of vials is incubated for 24 h at 200 rpm and another for 2 h at 200 rpm. To stop the reaction after the respective incubation times, 4 volumes of acetonitrile containing the internal standard (stop solution) are added to the reaction solution and the vials are vortexed briefly.
For the 0 h incubation, the stop solution with internal standard is first added to the buffer solution in glass vials and then the working solution of test compound (final concentration: 2 μM-2.5% DMSO) is added.
Propranolol is used as internal standard, but if the mass difference is too low with the test compound(s), another product is selected as internal standard. The concentration of the internal standard is chosen to obtain a peak area half of the average peak area of the test compounds and control at time point 0.
Analysis is performed on an LCMS-MS system (API2000 or API4000). The average of the peak areas of the two replicates from the parent compound at time 0 divided by the peak area of the internal standard is considered to be 100% remaining. The percentage remaining after 2 and 24 h of incubation is calculated for all other peaks and the percentage remaining after 2 and 24 h is reported.

In data set [4] the test system is RAW264.7 murine macrophage-like cells. The note with it: RAW264.7 cells stimulated with LPS; cited from earlier work.

Structures are written as SMILES.

T1 sequence (Q9NQS5 whole entry): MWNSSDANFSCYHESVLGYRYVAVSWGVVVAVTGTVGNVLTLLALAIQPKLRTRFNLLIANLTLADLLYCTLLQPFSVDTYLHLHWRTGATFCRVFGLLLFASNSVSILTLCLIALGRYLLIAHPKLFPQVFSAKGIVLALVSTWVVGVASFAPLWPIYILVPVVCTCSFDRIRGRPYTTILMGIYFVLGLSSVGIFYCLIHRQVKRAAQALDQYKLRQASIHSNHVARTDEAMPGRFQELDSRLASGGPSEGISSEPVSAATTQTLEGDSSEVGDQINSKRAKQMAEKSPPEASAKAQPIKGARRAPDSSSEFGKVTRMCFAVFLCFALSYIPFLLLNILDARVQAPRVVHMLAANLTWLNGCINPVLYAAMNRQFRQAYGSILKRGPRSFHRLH

On to `c1ccc2c(Cc3c[nH]c4ccccc34)c[nH]c2c1` [3,3′-diindolylmethane, reference compound], for which the “neutrophil chemotaxis induced by GPR84 agonists” value in the data set with human neutrophils was “induce neutrophil chemotaxis”. Besides, at GPR84 [1], the GPR84 agonist activity result is reported as “some GPR84 agonist activity”.

As for `CCCCCCCCNc1cc(=O)[nH]c(=O)[nH]1` [6-n-octylaminouracil], the GPR84 agonist activity result on GPR84 [1] is listed as “some GPR84 agonist activity”.

As for `COc1cc2c(cc1OC)-c1c(C)c(=O)cc(OC[C@@H]3COCCO3)n1CC2` [Compound 1, 4-[[(2S)-1,4-dioxan-2-yl]methoxy]-9,10-dimethoxy-1-methyl-6,7-dihydrobenzo[a]quinolizin-2-one], the IC50 on GPR84 [2] is 100 to 500 nM. Besides, the IC50 in the data set on human neutrophils fell in the range of 100 to 500 nM. Moreover, in data set [3], the “% rem. (2 h) pH 1.2” value is recorded as “*** (>80%)”, the “% rem. (24 h) pH 1.2” value is given as “*** (>80%)”, the “% rem. (2 h) pH 5.0” value is reported as “*** (>80%)” and the “% rem. (24 h) pH 5.0” value is on record as “*** (>80%)”. In data set [3], the “% rem. (2 h) pH 7.4” value was “*** (>80%)”, the “% rem. (24 h) pH 7.4” value was “*** (>80%)”, the “% rem. (2 h) pH 9.0” value was “*** (>80%)” and the “% rem. (24 h) pH 9.0” value is “*** (>80%)”.

On GPR84 [2], `Cc1c2n(c(NCC3CCCO3)cc1=O)CCc1cc(OCC(F)(F)F)ccc1-2` (stereo not shown) [Compound 8, 1-methyl-4-(tetrahydrofuran-2-ylmethylamino)-9-(2,2,2-trifluoroethoxy)-6,7-dihydrobenzo[a]quinolizin-2-one] showed an IC50 of 100 to 500 nM. In the data set on human neutrophils, the IC50 was in the range of 0.01 to 100 nM. In addition, in data set [3], the “% rem. (2 h) pH 1.2” value is given as “*** (>80%)”, the “% rem. (24 h) pH 1.2” value is reported as “*** (>80%)”, the “% rem. (2 h) pH 5.0” value is listed as “*** (>80%)” and the “% rem. (24 h) pH 5.0” value is “*** (>80%)”. Besides, in data set [3], the “% rem. (2 h) pH 7.4” value is “*** (>80%)”, the “% rem. (24 h) pH 7.4” value was “*** (>80%)”, the “% rem. (2 h) pH 9.0” value is “*** (>80%)” and the “% rem. (24 h) pH 9.0” value is on record as “*** (>80%)”.

With `COc1ccc2c(c1OC)CCn1c(NCC3CCCO3)cc(=O)c(C)c1-2` (stereo not shown) [Compound 10, 8,9-dimethoxy-1-methyl-4-(tetrahydrofuran-2-ylmethylamino)-6,7-dihydrobenzo[a]quinolizin-2-one], the IC50 at GPR84 [2] lay in the range of 0.01 to 100 nM. Further, the IC50 with human neutrophils lay within 0.01 to 100 nM. In data set [3], the “% rem. (2 h) pH 1.2” value is given as “*** (>80%)”, the “% rem. (24 h) pH 1.2” value is recorded as “*** (>80%)”, the “% rem. (2 h) pH 5.0” value was “*** (>80%)” and the “% rem. (24 h) pH 5.0” value was “*** (>80%)”. Besides, in data set [3], the “% rem. (2 h) pH 7.4” value was “*** (>80%)”, the “% rem. (24 h) pH 7.4” value is given as “*** (>80%)”, the “% rem. (2 h) pH 9.0” value is reported as “*** (>80%)” and the “% rem. (24 h) pH 9.0” value is reported as “*** (>80%)”.

For the compound `COc1ccc2c(c1OC)CCn1c(OC[C@@H]3COCCO3)cc(=O)c(C)c1-2` [Compound 12, 4-[[(2S)-1,4-dioxan-2-yl]methoxy]-8,9-dimethoxy-1-methyl-6,7-dihydrobenzo[a]quinolizin-2-one], the IC50 at GPR84 [2] is 100 to 500 nM. In the data set with human neutrophils, the IC50 is 100 to 500 nM. In data set [3], the “% rem. (2 h) pH 1.2” value was “*** (>80%)”, the “% rem. (24 h) pH 1.2” value is given as “*** (>80%)”, the “% rem. (2 h) pH 5.0” value is reported as “*** (>80%)” and the “% rem. (24 h) pH 5.0” value is listed as “*** (>80%)”. For the same compound, in data set [3], the “% rem. (2 h) pH 7.4” value was “*** (>80%)”, the “% rem. (24 h) pH 7.4” value is “*** (>80%)”, the “% rem. (2 h) pH 9.0” value is “*** (>80%)” and the “% rem. (24 h) pH 9.0” value is recorded as “*** (>80%)”.

`Cc1c2n(c(OC[C@@H]3COCCO3)cc1=O)CCc1cc(OCC(F)(F)F)ccc1-2` [Compound 18, 4-[[(2S)-1,4-dioxan-2-yl]methoxy]-1-methyl-9-(2,2,2-trifluoroethoxy)-6,7-dihydrobenzo[a]quinolizin-2-one] gave an IC50 on GPR84 [2] of 0.01 to 100 nM. Further, in the data set with human neutrophils, the IC50 lay within 0.01 to 100 nM. In addition, in data set [3], the “% rem. (2 h) pH 1.2” value was “*** (>80%)”, the “% rem. (24 h) pH 1.2” value was “*** (>80%)”, the “% rem. (2 h) pH 5.0” value is recorded as “*** (>80%)” and the “% rem. (24 h) pH 5.0” value is given as “*** (>80%)”. Moreover, in data set [3], the “% rem. (2 h) pH 7.4” value is listed as “*** (>80%)”, the “% rem. (24 h) pH 7.4” value was “*** (>80%)”, the “% rem. (2 h) pH 9.0” value is “*** (>80%)” and the “% rem. (24 h) pH 9.0” value was “*** (>80%)”.

Take `CCOC(=O)N1CCC(c2ccc3c(c2)CCn2c(OC[C@@H]4COCCO4)cc(=O)c(C)c2-3)CC1` [Compound 81, ethyl 4-[4-[[(2S)-1,4-dioxan-2-yl]methoxy]-1-methyl-2-oxo-6,7-dihydrobenzo[a]quinolizin-9-yl]piperidine-1-carboxylate]: the IC50 at GPR84 [2] and with human neutrophils was 0.01 to 100 nM throughout.

On to `Cc1c2n(c(OC[C@@H]3COCCO3)cc1=O)CCc1cc(C3CCN(C(=O)OC(C)C)CC3)ccc1-2` [Compound 82, isopropyl 4-[4-[[(2S)-1,4-dioxan-2-yl]methoxy]-1-methyl-2-oxo-6,7-dihydrobenzo[a]quinolizin-9-yl]piperidine-1-carboxylate], for which the IC50 on GPR84 [2] and with human neutrophils was 0.01 to 100 nM throughout.

In the case of `Cc1c2n(c(OC[C@@H]3COCCO3)cc1=O)CCc1cc(C3CCN(C(=O)OCC(F)(F)F)CC3)ccc1-2` [Compound 83, 2,2,2-trifluoroethyl 4-[4-[[(2S)-1,4-dioxan-2-yl]methoxy]-1-methyl-2-oxo-6,7-dihydrobenzo[a]quinolizin-9-yl]piperidine-1-carboxylate], the IC50 on GPR84 [2] and in the data set on human neutrophils was 0.01 to 100 nM in each case.

As for `Cc1c2n(c(OC[C@@H]3COCCO3)cc1=O)CCc1cc(N3CC(F)(F)C3)ccc1-2` [Compound 86, 9-(3,3-difluoroazetidin-1-yl)-4-[[(2S)-1,4-dioxan-2-yl]methoxy]-1-methyl-6,7-dihydrobenzo[a]quinolizin-2-one], the IC50 at GPR84 [2] and with human neutrophils was 0.01 to 100 nM throughout.

As for `Cc1c2n(c(OC[C@@H]3COCCO3)cc1=O)CCc1cc(N3CC(F)C3)ccc1-2` [Compound 91, 4-[[(2S)-1,4-dioxan-2-yl]methoxy]-9-(3-fluoroazetidin-1-yl)-1-methyl-6,7-dihydrobenzo[a]quinolizin-2-one], the IC50 lay in the range of 0.01 to 100 nM on GPR84 [2] and 100 to 500 nM in the data set on human neutrophils.

In the case of `Cc1c2n(c(OC[C@@H]3COCCO3)cc1=O)CCc1cc(N3CCC3)ccc1-2` [Compound 93, 9-(azetidin-1-yl)-4-[[(2S)-1,4-dioxan-2-yl]methoxy]-1-methyl-6,7-dihydrobenzo[a]quinolizin-2-one], the IC50 is 0.01 to 100 nM on GPR84 [2] and 100 to 500 nM in the data set with human neutrophils.

Take `Cc1c2n(c(OC[C@@H]3COCCO3)cc1=O)CCc1cc(N3CC(n4cccn4)C3)ccc1-2` [Compound 95, 4-[[(2S)-1,4-dioxan-2-yl]methoxy]-1-methyl-9-(3-pyrazol-1-ylazetidin-1-yl)-6,7-dihydrobenzo[a]quinolizin-2-one]: the values for the IC50 at GPR84 [2] and with human neutrophils were 0.01 to 100 nM and 100 to 500 nM, respectively.

For the compound `CCCCCCCCCC(=O)O` [capric acid], the “secretion of interleukin-12 p40 subunit (IL-12 p40)” value (“secretion” for short) in data set [4] is recorded as “dose dependently increased”.

As for `CCCCCCCCCCCC(=O)O` [lauric acid], in data set [4], the “secretion” value is “dose dependently increased”.

For `CCCCCCCCCCC(=O)O` [undecanoic acid], the “secretion” value in data set [4] was “dose dependently increased”.
